Assay results reported in paper PMC6582431 (Chemmedchem, 2018).

Assays:
FAAH [1] = biological target: T1, FAAH (Mus musculus, UniProt O08914); assay: In vivo FAAH inhibition, liver, after oral administration to mice
T1 sequence (O08914 1-579): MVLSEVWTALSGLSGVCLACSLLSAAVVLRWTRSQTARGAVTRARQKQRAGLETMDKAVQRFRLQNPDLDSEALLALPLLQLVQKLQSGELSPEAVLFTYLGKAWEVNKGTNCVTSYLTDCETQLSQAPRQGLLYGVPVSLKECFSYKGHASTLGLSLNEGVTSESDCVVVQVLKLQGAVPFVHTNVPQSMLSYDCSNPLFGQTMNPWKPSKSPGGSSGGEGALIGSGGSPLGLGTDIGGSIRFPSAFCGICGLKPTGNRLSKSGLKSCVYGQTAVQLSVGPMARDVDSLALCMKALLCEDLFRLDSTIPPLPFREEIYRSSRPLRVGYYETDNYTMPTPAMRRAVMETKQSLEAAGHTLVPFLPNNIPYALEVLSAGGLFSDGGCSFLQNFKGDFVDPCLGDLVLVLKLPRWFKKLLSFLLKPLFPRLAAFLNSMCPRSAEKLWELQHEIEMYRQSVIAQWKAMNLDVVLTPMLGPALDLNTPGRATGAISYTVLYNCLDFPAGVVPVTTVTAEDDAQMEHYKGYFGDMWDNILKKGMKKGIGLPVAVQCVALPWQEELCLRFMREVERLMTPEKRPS

carboxylesterases (CEs) = assay: CE activity in rat liver microsomes; format: biochemical; settings: for CEs (10 μM), percent of control: 10 μM in rat liver microsomes; for CEs activity, percent of control: C inhib=10 μM in rat liver microsomes, Table 2
MAGL = biological target: T2, MAGL (Rattus norvegicus, UniProt Q8R431); assay: MAGL activity in rat cerebellum cytosol; format: biochemical; settings: for MAGL (100 μM), percent of control / MAGL activity, percent of control: C inhib=100 μM in rat cerebellum cytosol; for MAGL activity, percent of control: Table 2
T2 sequence (Q8R431 1-303): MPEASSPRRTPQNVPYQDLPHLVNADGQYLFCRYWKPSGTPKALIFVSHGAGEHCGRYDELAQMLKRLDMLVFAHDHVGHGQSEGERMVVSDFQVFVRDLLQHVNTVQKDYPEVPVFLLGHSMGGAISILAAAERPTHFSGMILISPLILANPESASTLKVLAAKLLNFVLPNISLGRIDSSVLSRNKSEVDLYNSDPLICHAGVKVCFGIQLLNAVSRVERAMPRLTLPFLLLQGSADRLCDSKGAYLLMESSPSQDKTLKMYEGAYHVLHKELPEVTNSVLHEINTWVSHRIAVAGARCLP

[2] = CYP450 metabolic stability, mouse liver microsomes; format: in vitro ADME; settings: C inhib=50 μM in mouse liver microsomes, 1 h incubation
FAAH [3] = biological target: T1, FAAH; assay: In vivo FAAH inhibition, brain, after oral administration to mice
FAAH [4] = biological target: T3, FAAH (Rattus norvegicus, UniProt P97612); assay: In vitro FAAH activity in rat brain homogenates/membranes; format: biochemical; settings: for FAAH activity, percent of control, 100 nM / FAAH activity, percent of control, 10 nM: rat brain homogenates, 15 min pre-incubation
T3 sequence (P97612 1-579): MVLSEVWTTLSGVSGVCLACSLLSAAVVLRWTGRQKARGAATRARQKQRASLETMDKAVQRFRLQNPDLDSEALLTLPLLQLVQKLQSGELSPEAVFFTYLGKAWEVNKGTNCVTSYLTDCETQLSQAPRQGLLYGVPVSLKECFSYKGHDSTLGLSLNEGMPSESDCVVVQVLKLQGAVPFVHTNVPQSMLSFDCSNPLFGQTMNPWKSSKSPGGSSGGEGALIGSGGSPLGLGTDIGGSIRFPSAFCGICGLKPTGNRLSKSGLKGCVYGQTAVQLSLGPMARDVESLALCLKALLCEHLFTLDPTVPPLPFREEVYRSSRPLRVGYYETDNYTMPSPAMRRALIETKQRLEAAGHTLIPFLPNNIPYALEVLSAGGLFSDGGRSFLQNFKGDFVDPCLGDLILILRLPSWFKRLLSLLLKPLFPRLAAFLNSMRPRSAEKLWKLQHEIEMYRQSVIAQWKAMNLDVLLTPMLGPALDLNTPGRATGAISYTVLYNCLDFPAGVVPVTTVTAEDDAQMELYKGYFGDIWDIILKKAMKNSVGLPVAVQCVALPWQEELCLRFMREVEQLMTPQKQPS

[5] = 0.1 mg kg^−1 p.o. in mice, 8 h after administration, Table 4
[6] = 0.1 mg kg^−1 p.o. in mice, 8 h after administration, Table 5
[7] = 30 mg kg^−1 p.o. in mice, 1 h after administration, Table 2
[8] = 0.1 mg kg^−1 p.o., mice, post-dose

Row | FAAH activity, percent of control, 100 nM (FAAH [4]; Table 5) | Liver FAAH activity, percent of control (FAAH [1]; [6]) | MAGL (100 μM), percent of control (MAGL; Table 5) | Brain FAAH activity, percent of control (FAAH [3]; [6]) | FAAH activity, percent of control, 10 nM (FAAH [4]; Table 2) | FAAH activity, percent of control, 100 nM (FAAH [4]; Table 2) | Liver FAAH activity, percent of control (FAAH [1]; [7]) | MAGL activity, percent of control (MAGL) | Brain FAAH activity, percent of control (FAAH [3]; [7]) | SMILES | CEs (10 μM), percent of control (carboxylesterases (CEs); Table 5) | CEs activity, percent of control (carboxylesterases (CEs)) | also measured
1 |  |  |  |  | 42±12% of control | 1±0% of control | 34±5% of control | 73±4% of control | 34±9% of control | CN(C(=O)n1nnc2ccccc21)c1ccccc1 [Compound 10 a] |  | 31±2% of control | IC50 (FAAH [4]): 7 nM; IC50 (carboxylesterases (CEs); read-out: CE IC50, rat liver microsomes): > 1000 nM; IC50 (MAGL): > 100000 nM
2 |  |  |  |  | 0±0% of control | 0±0% of control | 15±4% of control | 7±4% of control | 20±5% of control | Cl.O=C(N1CCN(Cc2ccccc2)CC1)n1nnc2ccccc21 [Compound 10 i] |  | 27±1% of control | 
3 |  |  |  |  | 1±0% of control | 1±2% of control | 1±0% of control | 73±3% of control | 0±0% of control | CN(C(=O)n1nnc2ccccc21)C1CCCCC1 [Compound 10 k] |  | 30±1% of control | 
4 |  |  |  |  | 0±0% of control | 0±0% of control | 6±2% of control | 2±2% of control | 1±0% of control | CN(Cc1ccccc1)C(=O)n1nnc2ccccc21 [Compound 10 f] |  | 24±1% of control | 
5 |  |  |  |  | 13±1% of control | 2±1% of control | 84±6% of control | 4±1% of control | 87±7% of control | O=C(NCc1ccccc1)n1nnc2ccccc21 [Compound 10 e] |  | 67±4% of control | 

Continued, compound first:

Row | SMILES | FAAH activity, percent of control, 100 nM (FAAH [4]; Table 5) | Liver FAAH activity, percent of control (FAAH [1]; [6]) | MAGL (100 μM), percent of control (MAGL; Table 5) | Brain FAAH activity, percent of control (FAAH [3]; [6]) | FAAH activity, percent of control, 10 nM (FAAH [4]; Table 2) | FAAH activity, percent of control, 100 nM (FAAH [4]; Table 2) | Liver FAAH activity, percent of control (FAAH [1]; [7]) | MAGL activity, percent of control (MAGL) | Brain FAAH activity, percent of control (FAAH [3]; [7]) | CEs (10 μM), percent of control (carboxylesterases (CEs); Table 5) | CEs activity, percent of control (carboxylesterases (CEs)) | also measured
6 | CC1(C)COCN1C(=O)n1nnc2ccc(Br)cc21 [Compound 11 b, (6‐Bromo‐1H‐benzo[d][1,2,3]triazol‐1‐yl)(4,4‐dimethyloxazolidin‐3‐yl)methanone] |  |  |  |  |  |  |  |  |  |  |  | Liver FAAH activity, percent of control (FAAH [1]; [5]): 16±6% of control; CEs (10 μM), percent of control (carboxylesterases (CEs); Table 4): 73±9% of control; MAGL (100 μM), percent of control (MAGL; Table 4): 67±12% of control; CYPs (50 μM), percentage remaining [2]: 8±2 percentage remaining; Brain FAAH activity, percent of control (FAAH [3]; [5]): 77±29% of control
7 | CC1(C)COCN1C(=O)n1cnc(-c2ccccc2)c1 [Compound 8 f, (4,4‐Dimethyloxazolidin‐3‐yl)(4‐phenyl‐1H‐imidazol‐1‐yl)methanone] | 94±10% of control | 53±6% of control | 92±3% of control | 92±7% of control |  |  |  |  |  | 95±6% of control |  | 
8 | CC1(C)COCN1C(=O)n1nnc2ccc(-c3ccccc3)cc21 [Compound 11 d, (4,4‐Dimethyloxazolidin‐3‐yl)(6‐phenyl‐1H‐benzo[d][1,2,3]triazol‐1‐yl)methanone] |  |  |  |  |  |  |  |  |  |  |  | Liver FAAH activity, percent of control (FAAH [1]; [5]): 54±6% of control; CEs (10 μM), percent of control (carboxylesterases (CEs); Table 4): 92±2% of control; CYPs (50 μM), percentage remaining [2]: 73±2 percentage remaining; Brain FAAH activity, percent of control (FAAH [3]; [5]): 76±18% of control
9 | CN(C(=O)n1cnc(-c2ccccc2)c1)C1CCCCC1 [Compound 8 j] | 37±3% of control | 33±2% of control | 91±3% of control | 86±5% of control |  |  |  |  |  | 90±11% of control |  | 
10 | CN(C(=O)n1cnc(-c2cccnc2)c1)C1CCCCC1 [Compound 8 k, N ‐Cyclohexyl‐N‐methyl‐4‐(pyridin‐3‐yl)‐1H‐imidazole‐1‐carboxamide] | 75±7% of control | 13±4% of control | 94±4% of control | 75±16% of control |  |  |  |  |  | 97±3% of control |  | 
11 | O=C(Nc1cccnc1)N1CCC(Cc2cccc(Oc3ccc(C(F)(F)F)cn3)c2)CC1 [Compound 3, PF3845, reference compound] |  |  |  |  | 101±31% of control | 7±4% of control | 2±2% of control | 87±12% of control | 1±0% of control |  | 95±17% of control | Liver FAAH activity, percent of control (FAAH [1]; [5]): 7±4% of control; time of maximum inhibitory effect in the liver (FAAH [1]; [8]): 1 h; inhibition at 30 mg/kg (FAAH [1]; mouse, po, read-out: FAAH inhibition in the liver): > 90%; CEs (10 μM), percent of control (carboxylesterases (CEs); Table 4): 95±17% of control; MAGL (100 μM), percent of control (MAGL; Table 4): 87±12% of control; Brain FAAH activity, percent of control (FAAH [3]; [5]): 5±1% of control; time of maximal inhibitory effect in the brain (t max) (FAAH [3]; [8]): 8 h; FAAH inhibition in the brain (FAAH [3]; 30 mg kg^−1 p.o., mice, 1 h post-administration): over 90%
12 | CN(C(=O)n1cnc(-c2ccccc2)c1)C1CCOCC1 [Compound 8 i] | 104±18% of control | 12±4% of control | 96±1% of control | 38±18% of control |  |  |  |  |  | 96±7% of control |  | 
